# Values quoted from earlier work, collected in patent US20030104981A1 (priority 1995, published 2003).
# Assays:
# [1] = poster presentation, 1992; cited from earlier work
# [2] = assumed; cited from earlier work
# IDE = IDE (Homo sapiens, UniProt P14735); conditions: cited from earlier work
# LB lymphoma cell = conditions: cited from earlier work
# LB and IM-9 = conditions: cited from earlier work
substance,measurement,setting,value
B10 Asp insulin: B10 His replaced by Asp in native insulin,mitogenic effect,[1],significantly increased mitogenic effect
des-(B26-B30)-[Glu-B^10; Tyr-B^25—NH2] insulin analogue,"activity, times more active than native insulin",[2],at least 20 times
rat insulin analogue at B16 Tyr→Asp replacement: engineered rat insulin analogue at B16 Tyr→Asp replacement (group in Geneva),susceptibility to cleavage by IDE,IDE,unchanged susceptibility to cleavage by IDE
A8 His B10 Glu B27 His (code name H2) insulin [Radoyka H2],mitogenic potency (literature),LB lymphoma cell,most potent mitogen
same,binding to LB and IM-9,LB and IM-9,bound essentially irreversibly
